These results are taken from patent publication US10532065B2, “Bisphosphonic acid derivative and application for same” (NAGASAKI UNIVERSITY, priority 2014, dated 2020).

Each structure is given as a SMILES string. Several values for one entry are separate records, joined by “and”; a condition that tells them apart may be missing. Equal values may be shown once. Read-outs that look alike come from different tables or passages of the source. Bounds are passed on as bounds.

Common to all, as to assay type: cell-based
Assay [1] relates to Raji cells. The assay can be described thus: Raji tumor cell growth inhibition (CellTiterGlo). Conditions: Burkitt's lymphoma, 4 days culture.
Procedure: (§2) To quantitatively study an action of compound 7, which is a bisphosphonic acid POM ester derivative, on various hematologic tumor-derived lymphoma and myeloidic leukemia cells, the concentration of a compound that inhibits cell proliferation to half was calculated as IC50, and a direct antitumor effect was studied from the value thereof. […] First, MOLT-4, THP-1, SCC-3, PEER, RAMOS-RA1, C1R, MOLT-3, Raji, U937, K562, Daudi were cultured in RPMI1640 medium supplemented with 10% calf serum at 37° C. under 5% CO2 atmosphere while maintaining log phase. The cells were recovered, and centrifuged at 1,700 rpm, 4° C. for 5 min. The supernatant was removed, and suspended in RPMI1640 medium supplemented with 10% calf serum to 500 cells/50 μl. On the other hand, 10 mM stock solution of compound 7 which is a bisphosphonic acid POM ester derivative was serially diluted 2-fold from 200 μM. In addition, 10 mM stock solution of compound 14 which is bisphosphonic acid was serially diluted 2-fold from 2 mM. Then, the cell suspension (50 μl, 500 cells) and the compound solution (50 μl) were added to a flat-bottomed 96 well plate and cultured at 37° C. under 5% CO2 atmosphere for 4 days. Then, 100 μl of CellTiterGlo solution was added, and the mixture was pipetted 10 strokes, and transferred to a 96 well OptiPlate. […]
Assay [2] concerns MRK-nu-1 cells / γδ T cells. The assay can be described thus: TNF-α production from γδ T cells stimulated by compound-pretreated MRK-nu-1 cells. Conditions: MRK-nu-1, Mammary carcinoma, 4 hr pretreatment, 16 hr with γδ T cells, read-out: TNF-α50. As for the experimental part:
(§1) Since the above-mentioned results of Experimental Example confirm that the activity of bisphosphonic acids becomes high by POM esterification in various tumor cells, the TNF-α production induction ability of more number of tumor cells was quantitatively studied. […] Thereto was added a solution (500 μl) of compound 7 obtained by serially diluting 10 mM stock solution 10-fold from 20 μM, or a solution (500 μl) of compound 14 obtained by serially diluting 10 mM stock solution 10-fold from 200 μM, and the cells were suspended well. These conical tubes were stood at 37° C. for 4 hr, and the cells were washed 3 times with 5 ml of culture medium. To these cells was added 500 μl of medium, and the cells were suspended well. […] The cell culture medium was suspended well, and the plate was centrifuged at 1,700 rpm, 4° C. for 2 min and the culture supernatant (150 μl) was taken and placed in another round-bottomed 96 well plate. The plate was frozen at −80° C. overnight, left standing at room temperature for 1 hr, stirred well and 100 μl thereof was subjected to ELISA of TNF-α. The content of TNF-α was calculated from the analytical curve of TNF-α. These were performed in triplicate, and TNF-α50 of bisphosphonic acid POM ester derivative (compound 7) and bisphosphonic acid (compound 14) was calculated and summarized in Table 8.

For assay [3], the system named is OST cells. The assay can be described thus: OST tumor cell growth inhibition (CellTiterGlo). The conditions noted are these: Osteosarcoma, 4 days culture. In general terms: ATP-based viability assays read luminescence as a measure of living cells.
Procedure: (§3) First, EJ-1, 786-0, MKN1, OST, PC-3, PK-1, LK-2, G-361, TFK-1, MRK-nu-1 were cultured in RPMI1640 medium supplemented with 10% calf serum at 37° C. under 5% CO2 atmosphere while maintaining log phase. The cells were recovered by a conventional EDTA trypsin treatment, and centrifuged at 1,700 rpm, 4° C. for 5 min. The supernatant was removed, and suspended in RPMI1640 medium supplemented with 10% calf serum to 500 cells/50 μl. On the other hand, 10 mM stock solution of compound 7 which is a bisphosphonic acid POM ester derivative was serially diluted 2-fold from 200 pM. In addition, 10 mM stock solution of compound 14 which is bisphosphonic acid was serially diluted 2-fold from 2 mM. Then, the cell suspension (50 μl, 500 cells) and the compound solution (50 μl) were added to a flat-bottomed 96 well plate and cultured at 37° C. under 5% CO2 atmosphere for 4 days. Then, 100 μl of CellTiterGlo solution was added, and the mixture was pipetted 10 strokes, and transferred to a 96 well OptiPlate. After standing at room temperature for 10 min, the luminescence was measured by a luminometer and IC50 value was calculated.
Assay [4] deals with MKN1 cells / γδ T cells. The assay can be described thus: TNF-α production from γδ T cells stimulated by compound-pretreated MKN1 cells. Conditions: MKN1, Gastric cancer, 4 hr pretreatment, 16 hr with γδ T cells, read-out: TNF-α50. As for the experimental part: as §1
For assay [5], the system named is EJ-1 cells / γδ T cells. The assay can be described thus: TNF-α production from γδ T cells stimulated by compound-pretreated EJ-1 cells (indirect antitumor action, ELISA). The conditions noted are these: for EC50: EJ-1 pretreated 4 hr with compound, 16 hr with γδ T cells, TNF-α ELISA, read-out: TNF-α50. The procedure, abridged:
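EJ-1 cells exposed 4 h at 37 °C to 10-fold serial dilutions (POM esters from 20 µM, bisphosphonic acids from 200 µM), washed three times, then co-cultured with γδ T cells. Supernatant TNF-α measured by ELISA against a standard curve, in triplicate; TNF-α50 = […].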

Assay [6] concerns PEER cells. The assay can be described thus: PEER tumor cell growth inhibition (CellTiterGlo). Conditions: T cell acute lymphocytic leukemia, 4 days culture.
Procedure: as §2
The test system of assay [7] is PEER cells / γδ T cells. The assay can be described thus: TNF-α production from γδ T cells stimulated by compound-pretreated PEER cells. The conditions noted are these: T cell acute lymphocytic leukemia, 4 hr pretreatment, 16 hr with γδ T cells, read-out: TNF-α50. As for the experimental part:
as §1

Assay [8] concerns LK-2 cells. The assay can be described thus: LK-2 tumor cell growth inhibition (CellTiterGlo). The conditions noted are these: LK-2, Lung cancer, 4 days culture.
Procedure: as §3
Assay [9] concerns U937 cells. The assay can be described thus: U937 cell growth inhibition (direct antitumor action, CellTiterGlo). Conditions: for IC50: U937 cell growth inhibition, 4 days culture. As for the experimental part: The direct antitumor action of bisphosphonic acid POM ester and bisphosphonic acid was studied by comparison using U937.
The direct antitumor action of various bisphosphonic acid POM esters was studied by comparison using U937 and EJ-1. The measurement was performed according to Experimental Example 2 and Experimental Example 4.

Assay [10] deals with Daudi cells. The assay can be described thus: Daudi tumor cell growth inhibition (CellTiterGlo). The conditions noted are these: Burkitt's lymphoma, 4 days culture.
Procedure: as §2

Regarding `CC(C)(C)C(=O)OCOP(=O)(OCOC(=O)C(C)(C)C)C(CNc1nccs1)P(=O)(OCOC(=O)C(C)(C)C)OCOC(=O)C(C)(C)C` [Compound 7, tetrakispivaloyloxymethyl 2-(thiazol-2-ylamino) ethylidene-1,1-bisphosphonate], the concentration for half-maximal inhibition (IC50) was 270 nM in [1]; 810 nM in assay [3]; 23 nM in [6]; 800 nM in assay [8]; 280 nM and 260 nM in assay [9]; 430 nM in assay [10]. Further, the EC50 is 180 nM in assay [2], 560 nM in assay [4], 60 nM in assay [5] and 83 nM in assay [7]. Further, the “TNF-α production induction activity (in words)” value in [5] (EJ-1 pretreated with compound, γδ T cells) is “high activity”. Further, in assay [9] (U937 growth inhibition), the “direct antitumor activity (in words)” value is given as “particularly high activity”.

Take `O=P(O)(O)C(CNc1nccs1)P(=O)(O)O` [Compound 14, 2-(thiazol-2-ylamino)ethylidene-1,1-bisphosphonic Acid, reference compound]: the half-maximal inhibitory concentration (IC50) in assay [1] (Homo sapiens, 96 h) was determined as 120000 nM; in [3] (96 h), 66000 nM; in assay [6] (96 h), 82000 nM; in assay [8] (Homo sapiens, 96 h), 35000 nM; in assay [9] (Homo sapiens, U-937, 96 h), 26000 nM; in [10] (Homo sapiens, 96 h), 76000 nM. Besides, the EC50 in assay [2] (Homo sapiens) is more than 100000 nM; in assay [4] (Homo sapiens, MKN-1) it was 89000 nM; in [5] (EJ1), 68000 nM; in assay [7], more than 100000 nM.

By IC50 is commonly meant the midpoint of a concentration-inhibition curve.
